{"source": "patent US20190381034A1", "about": "“PHARMACEUTICAL COMPOSITION AND METHOD FOR ACUTE ON CHRONIC LIVER FAILURE AND RELATED LIVER DISEASES” (priority 2018, published 2019)", "origin": "cited, not measured here", "key": {"[1]": {"details": "in vivo"}, "[2]": {"system": "liver"}, "[3]": {"system": "liver failure patients"}, "[4]": {"details": "laboratory test indicators, liver failure patients, oral TMZ 20 mg three times a day"}}, "data": [{"smiles": "COc1ccc(CN2CCNCC2)c(OC)c1OC.Cl.Cl", "note": "[TMZ, 1-[2,3,4-trimethoxybenzyl] piperazine dihydrochloride]", "values": [{"measurement": "elimination half-life", "setting": "[1]", "result": "approximately 6 hours"}, {"measurement": "liver toxicity", "setting": "[2]", "result": "minimal liver toxicity"}, {"measurement": "30-day immortality rate of liver failure patients", "setting": "[3]; TMZ treatment group, 20 mg tablet orally three times a day, 4-week course, traditional therapeutic approach 44%", "result": "approximately 18%"}, {"measurement": "90-day immortality rate of liver failure patients", "setting": "[3]; TMZ treatment group, 20 mg tablet orally three times a day, 4-week course, traditional therapeutic approach 68%", "result": 35, "unit": "%"}, {"measurement": "decrease rate of alanine aminotransferase", "setting": "[3]; [4]", "result": "significantly raise the decrease rate"}, {"measurement": "decrease rate of aspartate transaminase", "setting": "[3]; [4]", "result": "significantly raise the decrease rate"}, {"measurement": "hepatic glucose metabolism (PET-CT imaging of liver)", "setting": "[3]; one liver failure patient, after taking TMZ", "result": "remarkably improved"}]}]}
